Data on three compounds can be found in patent US20250090562A1, “METHODS, COMPOSITIONS AND USES RELATED TO THE TREATMENT AND PREVENTION OF LEIGH’S SYNDROME” (Stealth BioTherapeutics Inc., priority 2023, published 2025).

Data set [1] deals with rotenone-inhibited Complex I. Nature of the data set: Complex I-bypass assay ((CI)-bypass assay), high-resolution respirometry O2 consumption. The data set is classed as cell-based, human. The note with it: Leigh (GM03672) fibroblasts, 0.5 μM rotenone, oxygen consumption rate; read-out: EC50 value, Complex I by-pass activity. Here is the method:
All high-resolution respirometry experiments were conducted using the Oroboros O2k-Fluorespirometer (Oroboros, Innsbruck, Austria). The Oroboros O2k-Fluorespirometer was calibrated daily using the air calibration protocol on DatLab 7.4 (Oroboros, Innsbruck, Austria). Prior to each experiment requiring the fluorescence module, the AmpR calibration protocol from DatLab 7.4 was used to calibrate the fluorescence signal. Initial data analysis, including setting of marks, was performed using DatLab 7.4.
Complex I-bypass activity was assessed using HRR to measure O2 consumption. Briefly, Leigh (GM03672) fibroblasts were harvested with trypsin, pelleted at 300×g centrifugation, and resuspended in prewarmed, complete MEM. Cells were added to each chamber via buffer replacement at a concentration of 1-2 million per mL. The chambers were closed to initiate measurement of O2 consumption. The slope negative signal, which is a derivative of O2 consumption, was allowed to stabilize over the course of several minutes. Using a Hamilton syringe to allow for continuous measurement of O2 consumption, glutamate (10 mM final concentration) and malate (0.1 mM final concentration) were added to the closed chamber through the central capillary of the stopper. The slope negative signal was stabilized for several minutes, and rotenone was added at a final concentration of 0.5 μM. One of Compounds 1 to 4 or Vatiquinone was added at increasing concentrations, allowing for several minutes of stabilization of the slope negative signal between titrations. Marks were set at signal plateaus in between titrations. Values were exported and analyzed using GraphPad Prism 9. […] Responsiveness of cells was confirmed with idebenone.
Statistical analysis was performed using GraphPad Prism 9. Complex I-bypass data were fit using nonlinear sigmoidal 4P fit. RET Assay data were analyzed by 2-way ANOVA using a p-value of 0.05.
The Complex 1-bypass assay ((CI)-bypass Assay) evaluates the capacity of compounds to donate electrons into the electron transport chain (ETC) when Complex I is impaired or otherwise deficient. Normally, electrons feed into the ETC through Complex I. In instances where Complex I is impaired, electrons must enter the ETC downstream of Complex I for oxidative phosphorylation (OXPHOS) to occur. Complex I is composed of 46 subunits, encoded by mitochondrial and nuclear genes. Due to its large size, Complex I mutations are a common cause of ETC dysfunction in mitochondrial diseases. Indeed, mutations in the genes that encode subunits for Complex I are important causes of Leigh and Leigh-like syndrome.
Using this assay, the ability of Compounds 1 to 4 and Vatiquinone to bypass rotenone-inhibited Complex I was determined. Rotenone is a widely used Complex I inhibitor and blocks the transfer of electrons from the iron-sulfur complexes on Complex I to ubiquinone. Thus, when rotenone is introduced to cells underdoing routine respiration, a decrease in oxygen consumption is observed, which is indicative of disrupted OXPHOS. The ability of Compounds 1 to 4 and Vatiquinone to “bypass” Complex I and restore OXPHOS is measured by an increase in oxygen consumption rate following addition of the compound to the chamber.
In executing this assay, in each instance, fibroblasts are added to each chamber of the Oroboros Oxygraph-2K (the “O2k”). The O2k generates two traces: 1) total oxygen consumption over time, 2) the rate of oxygen consumption over time (slope negative). Baseline respiration is established for several minutes by allowing the slope negative to stabilize. Rotenone is introduced to each chamber at a final concentration of 0.5 μM. The addition of rotenone is expected to cause a marked reduction of OXPHOS as measured by a decreased rate of oxygen consumption. Then the test article (i.e., in this case one of Compounds 1 to 4 or Vatiquinone) is added to the chamber. […]

Data set [2] is described as follows: Pharmacokinetics of Compound 3 and Compound 4, five daily subcutaneous doses, mice (plasma, heart, brain). The data set is classed as in vivo, C57Bl/6 mice. The settings on record: mouse; for tolerability: SC once per day for 5 days, up to 60 mg/kg. The procedure:
• Animals: Male/C57Bl/6 mice/-18-25 grams were received from an approved vendor. • Fasting was not required for this study. • Body weights were recorded prior to dose administration. The volume of each dose delivered (mL/kg) was based on each individual animal's body weight. • This was a multiple dose terminal study dosed once per day over 5 days. Mice were taken down following their 5th and final dose. • Doses were administered in accordance with test facility standard operating procedures. […] Any abnormalities were recorded. • Pre-formulated Compound 3 and Compound 4 were provided by Study sponsor ready to be dosed for each day in accordance with the Study Design set forth in Table 1, below.
• Terminal blood samples were collected via cardiac puncture following inhalation of anesthesia in accordance with test facility standard operating procedures. • Blood samples were collected into tubes with appropriate anticoagulant. The tubes were stored on wet ice until processed to plasma by centrifugation (3500 rpm at 5° C. for 10 minutes) within 20 minutes of collection. Sample aliquots of 100 μL were transferred into individual uniquely labeled matrix tubes and stored at nominal −80° C. until transferred to analytical chemistry for analysis by LC/MS/MS. • Immediately following each terminal blood collection for all groups, animals were sacrificed and perfused with cold PBS. The following tissues were collected: heart and brain in accordance with Table 2. • Plasma and tissue samples were processed for analysis by LC/MS/MS to determine the amounts/concentrations reported in the FIGS. 18-21.

Data set [3] has as its system Leigh fibroblasts (GM03672). Nature of the data set: Mitochondrial membrane potential (TMRM flow cytometry) in RSL3-treated Leigh fibroblasts. The note with it: 1 μM RSL3 with 1 μM compound, 4 h. The data set is classed as cell-based, human. The procedure: Leigh fibroblasts (GM03672) were seeded in a 24-well, tissue culture-treated plate in complete MEM (MEM+15% FBS+1% penicillin/streptomycin) at a density of 1×10^5 cells per 500 μL and incubated overnight at 37° C. at 5% CO2. Cells were treated for 4 hours at 37° C. with either 1 μM RSL3, 1 μM RSL3 with 1 μM Compound 3 or media for untreated cells. Following the incubation, supernatant was removed and cells were treated with 0.25% trypsin for 5 min at 37° C. Trypsin was neutralized with an equal part MEM. Cells were dislodged with gentle pipetting and pelleted at 300×g for 5 minutes. Pellets were resuspended in 500 μL Fluobrite DMEM and cells were transferred to a 96-well, v-bottom plate. Cells were stained with 20 nM MitoTracker Green and 100 nM tetramethylrhodamine methyl ester (TMRM) Samples were incubated for 25 minutes at 37° C. Each well was mixed immediately prior to analysis to resuspend settled cells. Fluorescence intensity was measured on the BD Accuri C6 Plus Flow Cytometer. A minimum of 10,000 events per sample was collected. Data analysis was performed using FloJo vs. 10. Gating was performed by establishing an initial forward scatter vs. side scatter gate. MitoTracker Green positive, TMRM positive cells were identified through subsequent gating. Median fluorescence intensity (MFI) of TMRM fluorescence was determined. Using GraphPad Prism 10, statistical significance between groups was determined by One-way ANOVA. A p-value of less than 0.05 was considered significant. Results are presented graphically in FIG. 20.
Background: In flow cytometry, cells or beads pass a laser one at a time.

The mark [4] stands for this setting: SC, up to 2 hours post dose after 5 days.

Take `CC1=C(C)C(=O)C(CC[C@@](C)(O)CC/C=C(\C)CCC=C(F)F)=C(C)C1=O` [Compound 2]: the EC50 (in general, the concentration needed to bring the measured effect to its halfway point) in data set [1] was approximately 4.09 µM.

For `CC1=C(C)C(=O)C(CC[C@](C)(O)CCCCCCCCC(F)(F)F)=C(C)C1=O` [Compound 4], the concentration for a half-maximal effect (EC50) in data set [1] was approximately 8.8 µM. Moreover, the tolerability entry in data set [2] is reported as “well tolerated”. For the same compound, in data set [2] (in vivo, sc), the “Tmax, Compound 4 compared with Compound 3” value is listed as “typically later”; the “brain exposure based on AUC, comparison between compounds” value is reported as “somewhat higher than Compound 3”; the “exposure (Cmax and AUC) heart compared with brain” value is given as “no difference in the two tissue exposures”; the “half-life, Compound 4 compared with Compound 3” value is “tended to be longer”. For the same compound, the “uptake into plasma after subcutaneous injection” value in data set [2] (in vivo, sc) is “migrate into the blood stream”. Besides, the “mitochondrial membrane potential (TMRM MFI), protection” value in data set [3] is “protective of the Leigh fibroblasts from the loss of mitochondrial membrane potential”.

As for `CC1=C(C)C(=O)C(CC[C@@](C)(O)COCCC[Si](C)(C)C)=C(C)C1=O` [Compound 3], in data set [1], the half-maximal effective concentration (EC50) is approximately 3.41 µM. In addition, in data set [2] (SC), the “exposure (Cmax and AUC) heart compared with brain” value is “higher in heart than in brain”; the “heart exposure based on AUC, comparison between compounds” value is recorded as “slightly higher that Compound 4”; the “uptake into plasma after subcutaneous injection” value was “migrate into the blood stream”. The tolerability result in data set [2] is listed as “well tolerated”. In data set [2] (setting [4]), the “concentration in brain tissue” value is reported as “up to microgram quantities of drug per gram of brain tissue” and the “concentration in heart tissue” value is “up to microgram quantities of drug per gram of heart tissue”. In data set [3], the “mitochondrial membrane potential (TMRM MFI), protection” value is recorded as “protective of the Leigh fibroblasts from the loss of mitochondrial membrane potential”.
